Consider four compounds from patent US20110166059A1, “MEANS AND METHODS FOR EVALUATING A THERAPY WITH A P38 MAP KINASE INHIBITOR” (priority 2008, published 2011).

In one test the test system is TNF, IL-6 or IL-10. Conditions: human volunteers, control group increased after about 2-4 hours; oral inhibitor; cited from earlier work.
Test [1] concerns LPS-stimulated human monocytes. The experiment in a line: Microarray gene expression profile of long-term LPS-stimulated monocytes in the presence of kinase inhibitors. Conditions: for late-stage LPS-induced gene expression change (principal component analysis, FIG. 4): long-term (16 hours) LPS-treated monocytes, 100 ng/ml LPS, inhibitor 10 μM. It counts as cell-based. Here is the method: (§1) Monocytes were isolated from pooled human buffy coats by Ficoll-Paque and subsequent Percoll (Pharmacia, Freiburg, Germany) density-gradient centrifugation to greater than 90% purity. Monocytes were cultured (1×10^6 cells/nil) in hydrophobic Teflon bags (Hereus, Hanau, Germany) in McCoy's 5a medium (Biochrom, Berlin, Germany) supplemented with 15% FCS, 2 mM L-glutamine, 200 IU penicillin, 100 μg/ml streptomycin and 1× NEAA (all from Biochrom, Berlin, Germany) and allowed to rest for 18 h prior to stimulation. Monocytes were exposed for 4 and 16 hours to 100 ng/ml LPS in the absence or presence of 10 μM PD98059, 10 μM GF109203X or 10 μm SB202190, respectively, or were left untreated
Total cellular RNA was isolated from 3 independent experiments with untreated and LPS-stimulated human monocytes in the absence or presence of pharmacological kinase inhibitors (RNeasy kit; Qiagen, Hilden, Germany). RNA preparation, samples preparation and hybridization to Affymetrix Human Genome 133 A Gene Chip arrays were performed according to the manufacturer's instructions (Affymetrix, Santa Clara, Calif.).
Ten micrograms of fragmented cRNA was, together with control cRNAs and grid alignment oligonucleotides, hybridized for 16 hours under constant rotation at 45° C. to Affymetrix Human Genome 133 A Gene Chip arrays (Affymetrix). Arrays were washed and stained using the Gene Chip Fluidics Station 400 (Affymetrix). Fluorescent signals were detected by the HP G2500A Gene Array Scanner (Affymetrix).
Data were processed by MicroArray Suite (MAS) Software 5.0 (Affymetrix). Signals were scaled to a target intensity of 100 and log transformed. The algorithm applied in the MAS 5.0 software assigned individual average background values to each cell intensity and subtracted it from single raw cell intensities Single raw values were calculated for each probe set (i.e., transcript from the median of discrimination values and their significance was assessed by using a one-sided Wilcoxon rank test).
While the MAS 5.0 software only allows comparison of 2 individuals data sets, we further studied the Affymetrix intensity files with the Expressionist Suite software package (GeneData, Basel, Switzerland) for a more sophisticated statistical analysis. […] The software package includes the Expressionist Refiner v3.0.4 which permits a global chip quality control with detection and masking of outliers and array defects, fluorescence gradient correction, and variance regularization. For final identification of significant gene expression difference we used Expressionist Analyst v4.0.5. First, data were normalized to a logarithmic mean of 180 in all experiments. […] Finally, n-fold changes were determined and screened for their significance by applying a t test. […]

Test [2] relates to promoter regions of LPS-regulated proinflammatory genes (VCAM, IL8, DUSP1, TNF, MYC) in monocytes. The experiment in a line: Chromatin immunoprecipitation (ChIP) of histone acetylation and methylation at promoters of pro-inflammatory genes in LPS-treated monocytes. Conditions: long-term (16 h) LPS treatment, ongoing inhibition of p38 MAP kinase; FIGS. 8 and 10. It counts as cell-based, human. Here is the method: as §1
After stimulation, monocytes were formalin-fixed, washed, lysed, and sonicated. DNA-protein complexes were immunoprecipitated with polyclonal histone-antibodies against H3K4 (abcam, Cambridge, UK), H3K79 and AcH4 (both upstate, Lake Placid, N.Y.). […] PCR products were processed by using the QuantiTect SYBR Green PCR kit to perform quantitative RT-PCRs employing the ABI PRISM 7900 (Applied Biosystems).

SMILES strings stand for the structures.

For the compound `Cc1ccc(-n2nc(C(C)(C)C)cc2NC(=O)Nc2ccc(OCCN3CCOCC3)c3ccccc23)cc1` [BIRB 796 BS, 1-(5-tert-butyl-2-p-tolyl-2H-pyrazol-3-yl)-3-[4-(2-morpholin-4-yl-ethoxy)-naphthalen-1-yl]-urea], in the test on TNF, IL-6 or IL-10, the “increase in cytokines such as TNF, IL-6 or IL-10 after LPS administration” value is “did not show a significant increase in these cytokines”. `CN(C)CCCn1cc(C2=C(c3c[nH]c4ccccc34)C(=O)NC2=O)c2ccccc21` [GF109203X]: the “late-stage LPS-induced gene expression change (principal component analysis, FIG. 4)” value in test [1] is reported as “did not significantly change gene expression”. The same measure, in the same setting: to `COc1cccc(-c2cc(=O)c3ccccc3o2)c1N` [PD98059] belongs “did not significantly change gene expression”.

`Oc1ccc(-c2nc(-c3ccncc3)c(-c3ccc(F)cc3)[nH]2)cc1` [SB202190, 4-(4-fluorophenyl)-2-2(4-hydroxyphenyl)-5-(4-pyridyl)-imidazole]: the “down-regulation of inflammatory response genes in the late stage of LPS-signaling” value in test [1] (human monocytes, 16 hours 100 ng/ml LPS, 10 μm SB202190) is on record as “reversed the down-regulation of inflammatory response genes”. Further, in test [1], the “late-stage LPS-induced gene expression change (principal component analysis, FIG. 4)” value was “changed significantly”. For the same compound, in test [2], the “acetylation of H4 (AcH4) at pro-inflammatory genes” value is listed as “sustained high acetylation of H4 (AcH4)”.
